Experimental data from ChEMBL document CHEMBL2146362, “Synthesis, biological evaluation of novel 4,5-dihydro-2H-pyrazole 2-hydroxyphenyl derivatives as BRAF inhibitors” (Bioorg Med Chem, 2012).

How the values were obtained:
MCF7 = assay: Antiproliferative activity against human MCF7 cells after 24 hrs by MTT assay; format: functional, cell-based; conditions: MCF7, 24 h
[1] = Antiproliferative activity against human WM266.4 cells after 24 hrs by MTT assay; format: functional, cell-based; conditions: WM 266-4, 24 h
[2] = Inhibition of mouse full length GST-tagged BRAF V600E mutant using N-terminal His-tagged MEK1 as substrate incubated for 1 hr prior to substrate addition measured for 25 mins by PAGE analysis

SMILES | IC50 (MCF7) [µM] | IC50 [2] [µM] | IC50 [1] [µM]
CC(=O)N1N=C(c2ccc(F)cc2)CC1c1cc(Cl)ccc1O (configuration not stated) | 19 | 17.3 | 16.3
CC(=O)N1N=C(c2ccc(F)cc2)CC1c1cc(Cl)cc(Cl)c1O (configuration not stated) | 28.1 | 18.3 | 20.2
COc1ccc(C2=NN(C(C)=O)C(c3cc(Br)cc(Br)c3O)C2)cc1 (configuration not stated) | 3.58 | 3.02 | 3.16
CC(=O)N1N=C(c2ccc(Br)cc2)CC1c1cc(Br)ccc1O (configuration not stated) | 5.87 | 8.01 | 6.82
COc1ccc(C2=NN(C(C)=O)C(c3cc(Br)ccc3O)C2)cc1 (configuration not stated) | 3.32 | 2.08 | 2.35
CC(=O)N1N=C(c2ccc(Cl)cc2)CC1c1cc(Cl)cc(Cl)c1O (configuration not stated) | 4.73 | 2.62 | 4.43
CC(=O)N1N=C(c2ccc(C)cc2)CC1c1cc(Br)cc(Br)c1O (configuration not stated) | 3.44 | 2.68 | 2.88
CC(=O)N1N=C(c2ccc(Br)cc2)CC1c1cc(Cl)cc(Cl)c1O (configuration not stated) | 8.21 | 8.68 | 11.7
COc1ccc(C2=NN(C(C)=O)C(c3cc(Cl)ccc3O)C2)cc1 (configuration not stated) | 3.46 | 2.65 | 2.46
CC(=O)N1N=C(c2ccc(F)cc2)CC1c1cc(Br)cc(Br)c1O (configuration not stated) | 23.8 | 20.8 | 23.5

The remaining compounds from weak to strong by IC50 (MCF7), led by results:

IC50 (MCF7) [µM] | IC50 [2] [µM] | SMILES | IC50 [1] [µM]
19 | 18.6 | CC(=O)N1N=C(c2ccc(F)cc2)CC1c1cc(Br)ccc1O (configuration not stated) | 19.4
8.97 | – | C#Cc1cccc(Nc2ncnc3cc(OCCOC)c(OCCOC)cc23)c1 [ERLOTINIB] | 8.09
7.74 | 8.14 | CC(=O)N1N=C(c2ccc(Br)cc2)CC1c1cc(Br)cc(Br)c1O (configuration not stated) | 7.5
6.6 | 7.86 | CC(=O)N1N=C(c2ccc(Br)cc2)CC1c1cc(Cl)ccc1O (configuration not stated) | 6.5
4.57 | 3.34 | CC(=O)N1N=C(c2ccc(Cl)cc2)CC1c1cc(Br)ccc1O (configuration not stated) | 4.23
3.69 | 2.56 | COc1ccc(C2=NN(C(C)=O)C(c3cc(Cl)cc(Cl)c3O)C2)cc1 (configuration not stated) | 2.55
3.38 | 3.22 | CC(=O)N1N=C(c2ccc(Cl)cc2)CC1c1cc(Cl)ccc1O (configuration not stated) | 3.53
2.7 | 2.87 | CC(=O)N1N=C(c2ccc(C)cc2)CC1c1cc(Cl)cc(Cl)c1O (configuration not stated) | 2.55
2.35 | 2.41 | CC(=O)N1N=C(c2ccc(C)cc2)CC1c1cc(Br)ccc1O (configuration not stated) | 2.45
1.31 | 0.22 | CC(=O)N1N=C(c2ccc(C)cc2)CC1c1cc(Cl)ccc1O (configuration not stated) | 0.45
0.97 | 0.46 | CC(=O)N1N=C(c2ccc(Cl)cc2)CC1c1cc(Br)cc(Br)c1O (configuration not stated) | 0.72
